Assay results: patent US8034781B2, “Angiotensin-(1-7) and angiotensin-(1-7) agonists for inhibition of cancer cell growth” (Wake Forest University Health Sciences, priority 2002, dated 2011)
Values belong to the compound of their own block, whether it stands above or below them. Square brackets hold non-standard residues; d marks the D form. Ends that are not written are not given here. Sar = CNCC(=O)O

Key:
[1] = test system: vascular smooth muscle cells (VSMCs); format: cell-based, Sprague-Dawley rats; details: for effect of antagonist on Ang-(1-7) attenuation of serum-stimulated thymidine incorporation: 1 μM Ang-(1-7), FBS (FIG. 2)
Protocol: (§1) Vascular smooth muscle cells were isolated form 12-14 week old Sprague-Dawley rats by explant culture (Freeman, E. J. et al., Hypertension, 1996, 28:104-108). Human lung and breast cancer cell lines were obtained from American Type Tissue Culture (ATTC) and included cells of the SK-LU-1 and A549 cell lines (both of which are derived from adenocarcinomas) as well as SK-MES-1 cells (derived from non-small cell lung tumors) and ZR-75-1 breast cancer cells.
(§2) Cells were grown in DMEM with 10% fetal bovine serum (FBS), […] in a humidified 37° C. incubator gassed with 5% CO2 and 95% room air. Cells were grown to subconfluence in either 24-well cluster plates or 100 mm dishes and made quiescent by treatment for 48 h with serum-depleted growth media, prior to the experiments outlined below to measure cell growth (^3H-thymidine incorporation), cell signaling or apoptosis.
To measure ^3H-thymidine incorporation, quiescent cells were incubated with serum and angiotensin peptides for 24 h at 37° C. ^3H-thymidine (0.25 μCi/well) was added and the cells incubated for an additional 4 h to incorporate the radiolabeled nucleotide. Subsequently, the cell monolayer was washed with cold phosphate-buffered saline (PBS; 50 mM NaPO4, 120 mM NaCl, pH=7.2). The adherent cells were precipitated with cold 10% TCA (4° C. for 30 min) and dissolved in 0.2% SDS in 0.1 N NaOH. Incorporated ^3H-thymidine was determined by liquid scintillation spectrometry, as previously described (Freeman, E. J. et al., Hypertension, 1996, 28:104-108). Growth inhibition was defined as a reduction in the amount of ^3H-thymidine incorporation as compared to the mitogen-stimulated controls.
During an additional 4 h, cell monolayers were pulsed with ^3H-thymidine (0.25 μCi/well) and harvested.

[2] = test system: vascular growth stimulated by balloon catheter injury to the rat carotid artery; assay: Balloon catheter injury to the rat carotid artery, intravenous minipump infusion; format: in vivo
Source text: (§3) In these same animals, the cross-sectional area of the neointima was reduced to 0.09±0.01 mm^2 as compared to 0.12±0.02 mm^2 in saline-treated controls (p<0.05).

[3] = as above; format: in vivo; details: rat, plasma, 24 ug/kg/h; intravenous minipump 24 μg/kg/h, 12 days, carotid artery-injured rats
Source text: as §3

[4] = test system: SK-LU-1 lung cancer cells; format: cell-based, human; details: for effect of antagonist on inhibition of serum-stimulated growth by Ang-(1-7): SK-LU-1 (FIG. 7); for effect on serum-stimulated 3H-thymidine incorporation: SK-LU-1, peptide at 1 or 100 nM (FIG. 8)
Protocol: (§6) Cells were grown in DMEM with 10% fetal bovine serum (FBS), 100 μg/mL penicillin and 100 units/mL streptomycin in a humidified 37° C. incubator gassed with 5% CO2 and 95% room air. Cells were grown to subconfluence in either 24-well cluster plates or 100 mm dishes and made quiescent by treatment for 48 h with serum-depleted growth media, prior to the experiments outlined below to measure cell growth (^3H-thymidine incorporation), cell signaling or apoptosis.

[5] = target: T1, AT2 angiotensin receptor (Homo sapiens, UniProt P50052); details: cited from earlier work
T1 sequence (P50052 1-363): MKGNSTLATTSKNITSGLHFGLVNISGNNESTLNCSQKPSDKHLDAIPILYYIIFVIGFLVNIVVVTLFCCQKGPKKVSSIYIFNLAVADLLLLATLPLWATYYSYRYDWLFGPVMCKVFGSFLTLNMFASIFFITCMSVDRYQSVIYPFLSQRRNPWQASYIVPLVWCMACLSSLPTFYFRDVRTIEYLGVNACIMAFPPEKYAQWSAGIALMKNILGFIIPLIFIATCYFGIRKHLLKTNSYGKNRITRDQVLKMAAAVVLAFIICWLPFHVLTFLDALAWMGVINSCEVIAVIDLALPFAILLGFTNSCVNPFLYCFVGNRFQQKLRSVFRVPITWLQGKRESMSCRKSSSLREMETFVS

[6] = test system: ZR-75-1 breast cancer cells; format: cell-based, human
Protocol: as §1, §2
To measure ^3H-thymidine incorporation, quiescent cells were incubated with serum and angiotensin peptides for 24 h at 37° C. ^3H-thymidine (0.25 μCi/well) was added and the cells incubated for an additional 4 h to incorporate the radiolabeled nucleotide. […] Incorporated ^3H-thymidine was determined by liquid scintillation spectrometry, as previously described (Freeman, E. J. et al., Hypertension, 1996, 28:104-108). […]

[7] = test system: SK-MES-1 lung cancer cells; format: cell-based, human
Protocol: as §6
To measure ^3H-thymidine incorporation, quiescent cells were incubated with serum and angiotensin peptides for 24 h at 37° C. ^3H-thymidine (0.25 μCi/well) was added and the cells incubated for an additional 4 h to incorporate the radiolabeled nucleotide. Subsequently, the cell monolayer was washed with cold phosphate-buffered saline (PBS; 50 mM NaPO4, 120 mM NaCl, pH=7.2). […] Incorporated ^3H-thymidine was determined by liquid scintillation spectrometry, as previously described (Freeman, E. J. et al., Hypertension, 1996, 28:104-108). […]

[8] = test system: vascular growth stimulated by balloon catheter injury to the rat carotid artery; details: previous studies with rats, 24 μg/kg/hr; cited from earlier work
[9] = test system: ERK2; assay: ERK2 phosphorylation in VSMCs, phospho-specific antibodies; format: cell-based, rat
Protocol: (§4) Reactions were terminated with Triton lysis buffer (50 mM Tris-HCl, pH 7.4, 1% Triton X-100, 100 mM NaCl, 5 mM EDTA, 50 mM NaF, 0.6 μM leupeptin, 0.01 mM Na3VO4 and 0.1 mM PMSF) and protein concentrations determined (Lowry, O. H., et al., J. Biol. Chem., 1951, 193:265-275). Proteins were separated by SDS polyacrylamide gel electrophoresis and transferred to polyvinyl membranes. The activation and autophosphorylation of ERK1 and ERK2 was determined using antibodies specific for the phosphorylated kinases (using antibodies from Cell Signaling Technologies). The immunoreactive product were visualized by enhanced chemiluminescence (ECL, Amersham) and quantified by densitometry, using the MCID image analysis system. The phospho-MAP kinase antibodies only recognize the catalytically activated and phosphorylated forms of MAP kinase (both ERK1 and ERK2 MAP kinase). The blots were also probed with antibodies to ERK1/2, to control for protein loading.
(§5) The activity of the MAP kinases ERK1 and ERK2 in VSMCs was measured using phospho-specific antibodies that only recognize the activated protein kinases.

[10] = test system: ERK1; assay: ERK1 phosphorylation in VSMCs, phospho-specific antibodies; format: cell-based, rat
Protocol: as §4, §5

[11] = test system: vascular smooth muscle cells (VSMCs); assay: Total cell number of VSMCs by Coulter counter; format: cell-based, Sprague-Dawley rats; details: Ang II alone
Protocol: Total cell number in response to treatment with Ang-(1-7) was also determined using a Coulter counter. The number of cells per well increased to 142% of basal following treatment with 1% serum.

[12] = test system: AT1 angiotensin receptor; details: cited from earlier work
[13] = lisinopril 20 mg/kg/day for 14 days
[14] = maximal stimulation by 1 μM Ang II

Compound: C#CCCCCCCCCCCCCCCCC(=O)O [17-octadecynoic acid]
- effect on growth inhibition by Ang-(1-7) ([1]; VSMCs, cytochrome P450 inhibitor): neither a lipoxygenase inhibitor nor the cytochrome P450 inhibitor 17-octadecynoic acid had any effect

- IC50 [4]: 0.05 nM
- IC50 [6]: 0.02 nM
- IC50 [7]: 0.4 nM
Compound: CC[C@H](C)[C@H](NC(=O)[C@H](Cc1ccc(O)cc1)NC(=O)[C@@H](NC(=O)[C@H](CCCNC(=N)N)NC(=O)[C@@H](N)CC(=O)O)C(C)C)C(=O)N[C@@H](Cc1c[nH]cn1)C(=O)N1CCC[C@H]1C(=O)O [Ang-(1-7), Asp-Arg-Val-Tyr-Ile-His-Pro]
- blood pressure ([2]; Ang-(1-7) infusion vs saline): similar
- heart rate ([2]; Ang-(1-7) infusion vs saline): similar
- level at time molar at 288 h [3]: 0.131 ± 0.0397 nM
- IC50 levels at the AT2 angiotensin receptor [5]: micromolar range
- change in weight, blood pressure, or heart rate [8]: no change

Compound: CCc1nc2c(C)cc(C)nc2n1Cc1ccc(-c2ccccc2-c2nn[nH]n2)cc1 [L158,809]
- effect of antagonist on Ang-(1-7) attenuation of serum-stimulated thymidine incorporation ([1]; VSMCs): unaffected

Compound: CCCCc1nc(Cl)c(CO)n1Cc1ccc(-c2ccccc2-c2nn[nH]n2)cc1 [Losartan]
- effect of antagonist on inhibition of serum-stimulated growth by Ang-(1-7) [4]: neither AT1 nor AT2 angiotensin receptor antagonists Losartan and PD123177, respectively, were effective

Compound: Cc1cc(Cn2cnc3c2CC(C(=O)O)N(C(=O)C(c2ccccc2)c2ccccc2)C3)ccc1N (centres unmarked) [PD123177]
- effect of antagonist on inhibition of serum-stimulated growth by Ang-(1-7) [4]: neither AT1 nor AT2 angiotensin receptor antagonists Losartan and PD123177, respectively, were effective
- effect of antagonist on Ang-(1-7) attenuation of serum-stimulated thymidine incorporation ([1]; VSMCs): unaffected

Compound: Cc1cc(Cn2cnc3c2C[C@@H](C(=O)O)N(C(=O)C(c2ccccc2)c2ccccc2)C3)ccc1N(C)C [PD 123319]
- effect of antagonist on Ang-(1-7) attenuation of serum-stimulated thymidine incorporation ([1]; VSMCs): not prevented

Compound: CCN(CC)CC.Nc1ncnc2c1ncn2[C@@H]1O[C@@H]2COP(O)(=S)O[C@H]2[C@H]1O (some centres unmarked) [Rp-cAMPS, Rp-adenosine-3′,5′-cyclic monphosphophorothioate triethylamine salt]
- effect on reduction in serum-stimulated 3H-thymidine incorporation by Ang-(1-7) or carbacyclin ([1]; VSMCs, pretreatment 10 μM (FIG. 10)): completely blocked

Compound: CCCCC[C@H](O)/C=C/[C@@H]1[C@H]2C/C(=C/CCCC(=O)O)C[C@H]2C[C@H]1O [carbacyclin]
- effect on serum-stimulated 3H-thymidine incorporation ([1]; VSMCs, 5 μM (FIG. 10)): reduction

Compound: NCCCC[C@H](N[C@@H](CCc1ccccc1)C(=O)O)C(=O)N1CCC[C@H]1C(=O)O [lisinopril]
- cross-sectional area of the neointima [2, 13]: 0.09±0.01 mm^2
- elevation of plasma levels of Ang-(1-7) vs saline [2, 13]: 2.3 fold
- plasma levels of Ang-(1-7) ([2]; lisinopril 20 mg/kg/day for 14 days, balloon catheter injury): 99.1 ± 6.7 pM

Compound: Arg-Val-Tyr-Ile-His-Pro-Phe (RVYIHPF; listed as Homo sapiens) [Ang-(2-8)]
- effect on serum-stimulated 3H-thymidine incorporation [4]: ineffective

Compound: Asp-Arg-Val-Tyr-Ile-His-Pro-Phe (DRVYIHPF; listed as Homo sapiens) [Ang II]
- increase in ERK2 phosphorylation over basal [9, 14]: 166 fold
- effect on serum-stimulated 3H-thymidine incorporation [4]: ineffective
- increase in ERK1 phosphorylation over basal [10, 14]: 37 fold
- number of cells per well [11]: 145 % of basal
- effect on 3H-thymidine incorporation into VSMCs ([1]; peptide alone, dose response (FIG. 1)): dose-dependent stimulation

Compound: Asp-Arg-Val-Tyr-Ile-His-[D]Ala (DRVYIH[dA]) [[D-Ala^7]-Ang-(1-7)]
- effect of antagonist on inhibition of serum-stimulated growth by Ang-(1-7) [4]: blocked
- competition at the AT2 receptor [5]: poor competitor
- effect of antagonist on Ang-(1-7) attenuation of serum-stimulated thymidine incorporation ([1]; VSMCs): blocked
- competition at the AT1 receptor [12]: poor competitor

Compound: DRVYIHPFHL [Ang I]
- effect on serum-stimulated 3H-thymidine incorporation [4]: ineffective

Compound: PDGF
- increase of ERK2 activity over basal ([9]; 10 ng/mL PDGF): 26 fold
- increase of ERK1 activity over basal ([10]; 10 ng/mL PDGF): 16 fold

Compound: Sar-Arg-Val-Tyr-Ile-His-Pro-Thr ([Sar]RVYIHPT) [[Sar^1-Thr^8]-Ang II]
- effect of antagonist on Ang-(1-7) attenuation of serum-stimulated thymidine incorporation ([1]; VSMCs): completely blocked

Compound: Val-Tyr-Ile-His-Pro (VYIHP; listed as Homo sapiens) [Ang-(3-7)]
- effect on serum-stimulated 3H-thymidine incorporation [4]: ineffective

Compound: Val-Tyr-Ile-His-Pro-Phe (VYIHPF; listed as Homo sapiens) [Ang-(3-8)]
- effect on serum-stimulated 3H-thymidine incorporation [4]: ineffective
